Assay results from patent US20220362182A1, “METHODS FOR REVERSING HEPATIC STEATOSIS” (BRIGHTSEED, INC., priority 2020, published 2022).
“Also recorded” adds a separate entry of the source. Where two headings read alike, the source gives them in different places.

Key:
HNF4α [1] = target: T1, HNF4α (Homo sapiens, UniProt P41235); assay: DARTS assay (HNF4α protease sensitivity) in HepG2 cells; assay type: binding; set-up: Total cell protein was extracted; endogenous in cells; host or cells: HepG2 cells; settings: 40 or 80 μM for 16 h, subtilisin
T1 sequence (P41235 1-474): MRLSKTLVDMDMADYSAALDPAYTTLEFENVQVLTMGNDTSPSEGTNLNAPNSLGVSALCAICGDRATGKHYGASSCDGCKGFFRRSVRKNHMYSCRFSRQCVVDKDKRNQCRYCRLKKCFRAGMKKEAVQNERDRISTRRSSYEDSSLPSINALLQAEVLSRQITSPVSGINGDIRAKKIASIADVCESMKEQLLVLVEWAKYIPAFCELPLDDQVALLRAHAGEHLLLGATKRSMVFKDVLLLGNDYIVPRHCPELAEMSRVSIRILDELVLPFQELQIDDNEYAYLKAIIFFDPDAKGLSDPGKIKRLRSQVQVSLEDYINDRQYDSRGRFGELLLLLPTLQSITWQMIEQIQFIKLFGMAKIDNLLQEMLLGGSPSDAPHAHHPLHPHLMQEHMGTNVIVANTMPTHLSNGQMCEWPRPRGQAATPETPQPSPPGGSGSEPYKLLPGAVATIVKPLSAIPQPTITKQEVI
Method: DARTS assays were conducted as described in the art. HepG2 cells were treated with DMSO, BI6015, NCT, NFT at a concentration of 40 or 80 μM for 16 hr. Total cell protein was extracted and measured by BCA protein assay (Thermo Scientific). Each sample was split into two aliquots for proteolysis without (−) or with (+) Subtilisin (Sigma-Aldrich). Forty […] of cell lysate was incubated with or without protease (40 ng/ml subtilisin) for 35 min at room temperature.
Whole-cell extracts were prepared by incubation in RIPA buffer (Invitrogen) containing protease inhibitors (Calbiochem, San Diego, Calif.). Protein ([…]) was separated on 12% or 16% Tri-Glycine gels (Invitrogen) and transferred to Immobilon P membrane (0.2 μm pore, Millipore). After 1 h in phosphate-buffered saline-Tween (PBST) with 3% milk, membrane was incubated with antibodies to HNF4α (mouse, Novus, 1:1000), LC3B (rabbit, Novus, 1:500), p62 (SQSTM1, mouse, Santa Cruz, 1:1000) or β-actin (mouse, Santa Cruz, 1:2000), followed by secondary antibody conjugated to horseradish peroxidase (1:5000, Jackson Immune).

[2] = animal cells and mice; cited from earlier work
INS mRNA = assay: insulin mRNA qPCR in T6PNE cells; assay type: cell-based, human
Method: (§1) Quantitative PCR (Q-PCR) from in vitro cell culture experiments used total RNA purified using RNeasy Kits (Qiagen). For liver tissue samples, total RNA was isolated using Trizol (Invitrogen) and prepared for RNAseq (mouse liver DMSO and NCT, N=3). cDNA was amplified using 3 μg of total RNA using qScript cDNA SuperMix (Quanta BioSciences, Beverly, Mass., USA). QPCR analysis was performed using SYBR® Select Master Mix (Applied Biosystems) and ABI 7900HT (Applied Biosystems, Thermo Fisher Scientific). The Ct values of mRNA expression were then normalized to the 18 s rRNA values and are expressed as fold change over samples from mice fed normal chow for in vivo experiments or DMSO controls for cell culture experiments.

HNF4α [3] = target: T1, HNF4α; assay: T6PNE insulin promoter assay (human insulin promoter-GFP transgene); assay type: cell-based; set-up: endogenous in cells; host or cells: T6PNE cells; settings: T6PNE cells; for insulin promoter activity / HNF4α activation: GFP-positive cells relative to DMSO; for dose responsiveness in the INS promoter assay: multiple doses
Method: The T6PNE insulin promoter assay has been described previously and was performed here with slight modifications as follows: T6PNE cells were seeded at 200 cells per well in 384-well tissue culture plates (Greiner Bio-One) in the presence of 0.5 μM tamoxifen. Compounds described herein in DMSO were dispensed with an Echo 555 Acoustic Liquid Handler (Beckman Coulter). Three days after compound addition, cells were fixed in 4% paraformaldehyde (USBio) for 15 min and stained with DAPI (0.167 μg/ml, Invitrogen). Blue (DAPI) and green (GFP) channels were imaged using a Celigo imaging cytometer (Nexcelom Bioscience). The number of GFPpositive cells was normalized to the DAPI-positive cell number and fold change calculated relative to the DMSO control.
T6PNE cells were maintained in RPMI (5.5mM glucose, Corning) supplemented with 10% fetal bovine serum (FBS, Sigma-Aldrich) and 1% penicillin-streptomycin (pen-strep, Gibco). Cells were maintained in 5% CO2 at 37° C. For the insulin promoter assay, 0.5 μM tamoxifen (Sigma-Aldrich) was added to T6PNE cell culture media. HepG2 or HeLa cells were cultured in DMEM (high glucose, Corning) supplemented with 10% FBS and 1% pen-strep and maintained at 5% CO2, 37° C.

murine PK = settings: mouse, in vivo
Method: Murine PK was conducted by WuXi AppTec (Shanghai, China). C57BL/6 male mice of age 7-9 weeks were obtained from SLAC Laboratory Animal Co (Shanghai, China). Mice were fasted for 12 h prior to compound administration. Oral gavage was used for PO dosing. For IV dosing, compound was administered by tail vein injection. For compound concentration determination, 25 μL of blood was collected from the submandibular or saphenous vein and processed for plasma. Plasma concentration of compound was determined by LC-MS/MS.

estrogenic activity = assay: assay for estrogenic activity; assay type: cell-based; settings: false-positive counter assay
HNF4α mRNA = HNF4α mRNA qPCR in T6PNE cells; assay type: cell-based, human
Method: as §1

PPARγ receptor = target: T2, PPARγ receptor (Homo sapiens, UniProt P37231); assay: assay for PPARγ agonist activity; assay type: cell-based; settings: false-positive counter assay
T2 sequence (P37231 1-505): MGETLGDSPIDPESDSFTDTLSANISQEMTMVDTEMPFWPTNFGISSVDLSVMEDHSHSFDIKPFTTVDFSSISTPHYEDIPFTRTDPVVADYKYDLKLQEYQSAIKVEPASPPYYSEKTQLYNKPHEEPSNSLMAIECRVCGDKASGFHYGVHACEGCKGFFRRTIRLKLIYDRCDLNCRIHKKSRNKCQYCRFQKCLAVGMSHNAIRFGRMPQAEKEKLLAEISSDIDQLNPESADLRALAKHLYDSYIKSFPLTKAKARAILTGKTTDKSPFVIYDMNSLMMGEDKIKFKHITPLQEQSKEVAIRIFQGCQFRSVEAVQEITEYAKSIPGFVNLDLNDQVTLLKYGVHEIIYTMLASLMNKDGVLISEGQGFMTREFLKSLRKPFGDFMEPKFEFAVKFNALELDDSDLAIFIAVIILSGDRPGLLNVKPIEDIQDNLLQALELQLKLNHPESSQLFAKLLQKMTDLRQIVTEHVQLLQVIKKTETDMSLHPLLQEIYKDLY

Row | SMILES | HNF4α proteolytic sensitivity / conformational change (HNF4α [1]) | anti-inflammatory properties [2] | INS mRNA (INS mRNA) | insulin promoter activity / HNF4α activation (HNF4α [3]) | dose responsiveness in the INS promoter assay (HNF4α [3]) | oral bioavailability (murine PK) | estrogenic activity (estrogenic activity) | HNF4α mRNA (HNF4α mRNA) | PPARγ receptor agonist activity (PPARγ receptor) | HNF4α mRNA (HNF4α mRNA; listed as N-trans-caffeoyltyramine)
1 | COc1cc(/C=C/C(=O)NCCc2ccc(O)cc2)ccc1O [NFT, N-trans feruloyltyramine] | induced a change in HNF4α proteolytic sensitivity | anti-inflammatory properties | increased | more potent activators; also recorded: approximately as active as alverine; also recorded: much more potent | exhibited dose responsiveness | poor oral bioavailability | no estrogenic | increased; also recorded: induced HNF4α expression | no estrogenic or PPARγ receptor agonist activity | 
2 | O=C(/C=C/c1ccc(O)c(O)c1)NCCc1ccc(O)cc1 [NCT, N-trans-caffeoyltyramine] | induced a change in HNF4α proteolytic sensitivity | anti-inflammatory properties | increased | more potent activators; also recorded: strongest inducer of insulin promoter activity; also recorded: much more potent | exhibited dose responsiveness | poor oral bioavailability | no estrogenic | increased; also recorded: induced HNF4α expression | no estrogenic or PPARγ receptor agonist activity | induces the expression of HNF4a mRNA
